US9283242B2, “Uses of dihydro bases” (priority 2013, dated 2016)

How the values were obtained:
HK82SOS = assay: CRAB lesion bypass assay, HK82SOS cells; assay type: cell-based, E. coli; details: percentage relative to unmodified control genome
From the text: (§1) All E. coli strains used in this work contain the F′ episome, which enables infection by M13 phage. GW5100 strain was used for large scale preparation of M13 phage DNA, SCS 110 (JM110, end Al) was used for amplification of progeny phage post-electroporation, and NR9050 was the strain of choice for double agar plating with X-GAL for blue-clear detection of plaques. The E. coli strains used to replicate lesion-containing phage were HK81 (as AB1157, but nalA) and HK82 (as AB1157, but nalA alkB22; AlkB-deficient).
Lesion-containing genomes were mixed with the competitor genome (80:20 molar ratio) and electroporated in triplicate into 100 μl competent cells using a 2 mm-gap cuvette and a BTX electroporator set to 2.5 kV and 125 a Typical pulse lengths were 4.9 msec. The cells were immediately transferred to 10 ml LB and an aliquot was immediately plated using the agar overlay method to verify that a minimum of 10^5 independent initial electroporation events occurred in 10 ml of culture. Incubation for 6 h at 37° C. with aeration generated the progeny phage, which were then reamplified in SCS 110 cells (10 μl overnight culture and 100 μl of the 6 h supernatant in 10 ml LB) to dilute out the residual genomic DNA used for electroporation. Single-stranded M13 progeny phage DNA was isolated from 1.4 ml of supernatant using a Q1Aprep Spin M13 Kit with final DNA suspension in 100 μl elution buffer. CRAB forward and reverse primers were used to amplify the region of interest from 15 μl per Q1Aprep elution sample in a total volume of 25 μl containing 50 pmol of each primer, 1×Pfu Turbo buffer, 1.25 U Pfu Turbo DNA polymerase and […] of each dNTP. The PCR program used 30 cycles of 67° C. (1 min) annealing and 72° C. (1 min) extensions. […] The gels were visualized on a phosphorimager (Typhoon 7000, GE Healthcare Life Sciences); the band intensities were quantified using IMAGEJ software (National Institutes of Health). Lesion bypass was calculated as the percentage ratio of the intensity of the 18-mer band (lesion signal) to the intensity of the 21-mer band (competitor signal). […]

HK82-SOS = assay: REAP mutagenesis assay, HK82-SOS cells; assay type: cell-based, E. coli; details: (b) HK82-SOS
From the text: as §1
(§2) Lesion-containing genomes were mixed with the competitor genome (80:20 molar ratio) and electroporated in triplicate into 100 μl competent cells using a 2 mm-gap cuvette and a BTX electroporator set to 2.5 kV and 125 a Typical pulse lengths were 4.9 msec. The cells were immediately transferred to 10 ml LB and an aliquot was immediately plated using the agar overlay method to verify that a minimum of 10^5 independent initial electroporation events occurred in 10 ml of culture. Incubation for 6 h at 37° C. with aeration generated the progeny phage, which were then reamplified in SCS 110 cells (10 μl overnight culture and 100 μl of the 6 h supernatant in 10 ml LB) to dilute out the residual genomic DNA used for electroporation. Single-stranded M13 progeny phage DNA was isolated from 1.4 ml of supernatant using a Q1Aprep Spin M13 Kit with final DNA suspension in 100 μl elution buffer. CRAB forward and reverse primers were used to amplify the region of interest from 15 μl per Q1Aprep elution sample in a total volume of 25 μl containing 50 pmol of each primer, 1×Pfu Turbo buffer, 1.25 U Pfu Turbo DNA polymerase and […] of each dNTP. The PCR program used 30 cycles of 67° C. (1 min) annealing and 72° C. (1 min) extensions. After purification using QIAQUICK PCR purification columns, 4 μl of the PCR product were treated with BbsI (1.5 U) and SAP (0.3 U) in a total volume of 6 μl by incubating at 37° C. for 4 h. After phosphatase inactivation, (80° C. for 5 min), the 5′ ends were then radiolabeled using [γ-^32P]-ATP (1.66 pmol, 10 μCi/μl, 6000 Ci/mmol), cold ATP (16 pmol) and 5 U of OPTIKINASE at 37° C. for 30 min. Following the kinase inactivation at 65° C. for 20 min, the labeled product was then trimmed by HaeIII (10 U in a final volume of 10 μl) at 37° C. for 2 h, and diluted 1:1 in formamide loading dye. PAGE separation on a 20% denaturing gel, run for about 3.5 h at 550 V, until the xylene cyanol dye migrated 10.5 cm, yielded two bands for each sample: an 18-mer originating from the lesion-containing genome and a 21-mer originating from the competitor genome. The gels were visualized on a phosphorimager (Typhoon 7000, GE Healthcare Life Sciences); the band intensities were quantified using IMAGEJ software (National Institutes of Health). Lesion bypass was calculated as the percentage ratio of the intensity of the 18-mer band (lesion signal) to the intensity of the 21-mer band (competitor signal).
(§3) The REAP assay methodology is identical to the CRAB assay except for the PCR primers, which amplified only the progeny DNA originating from the lesion-carrying genomes. Following electrophoresis, the 18-mer bands were excised from the gel, crushed and extracted with 200 μl water. After desalting with SEPHADEX G-50 Fine resin spin columns, the samples were lyophilized to dryness, resuspended in 5 μl containing 1 μg P1 Nuclease in 30 mM sodium acetate (pH 5.3) and 10 mM zinc chloride, and incubated at 50° C. for 1 h. One μl of each sample was then spotted onto PEI-TLC plates and separated using 200 ml of a saturated solution of (NH4)2HPO4 adjusted to pH 5.8. After 24 h of development, the TLC plates were air-dried and quantified using phosphorimagery. […]

[1] = Mutagenesis model: base-pairing preference of tautomers combined with NMR tautomeric distribution; details: assuming imine geometric isomers present in equal proportions
Method: One of the fundamental assumptions in developing a mutagenesis model is that each KP1212 tautomer has a distinct base-pairing preference. To establish these preferences, in a relatively simple modeling exercise each tautomer was analyzed for its most probable base-pairing partner on the basis of hydrogen bonding. The primary criterion for correct base-pairing was formation of the maximum number of Watson-Crick type hydrogen bonds between the bases. Each type of hydrogen bond was considered to confer an equal stabilization energy. Configurations in which multiple base pairs had equal hydrogen bond numbers were considered equally probable. Since KP1212 is a cytosine (pyrimidine) analog, and the primary mutagenic events are A to G or G to A, our modeling exercise explored only purine-pyrimidine putative base pairs. Several KP1212 tautomers featured a canonical Watson-Crick face. Thus, tautomers enol-amino (1), enol-imino (2Z) and keto-amino (4) were predicted to pair with guanine, while keto-imino (5E) was predicted to pair with adenine (FIG. 19). The remaining tautomers could not adopt a canonical Watson-Crick face and therefore were hypothesized to pair in other geometries (i.e., wobble pairings, or syn-conformer pairings). […]

[2] = system: HK81 (AlkB+) E. coli cells; assay: REAP mutagenesis assay, HK81 cells; assay type: cell-based; details: for Mutagenicity, Average % A / Mutagenicity, Average % G / Mutagenicity, Average % T: (c) HK81
From the text: as §1, §2, §3

Compound	Polymerase bypass efficiency, Avg. (HK82SOS) [%]	Mutagenicity, Average % A (HK82-SOS) [%]	Mutagenicity, Average % C (HK82-SOS) [%]	Mutagenicity, Average % G (HK82-SOS) [%]	Mutagenicity, Average % T (HK82-SOS) [%]	model-predicted pairing with A [1]	model-predicted pairing with G [1]	Mutagenicity, Average % C [2] [%]	Mutagenicity, Average % A [2] [%]	Mutagenicity, Average % G [2] [%]	Mutagenicity, Average % T [2] [%]
NC1=NC(=O)N([C@H]2C[C@H](O)[C@@H](CO)O2)CN1 [KP1212, 5-aza-5,6-dihydro-2′-deoxycytidine]	124	0.1	89.4	0.2	10.3	~20 % of the time	~80 % of the time	90.2	0.2	0.1	9.5
Nc1ccn([C@H]2C[C@H](O)[C@@H](CO)O2)c(=O)n1 [dC, deoxycytidine]	100	0.1	–	0.0	0.0	–	–	99.9	0.1	0.0	0.0
